Here are results for three compounds from patent US20050214384A1, “Chromium compositions and methods for using the same for inhibiting drug-induced insulin resistance” (priority 2002, published 2005).

Where two headings read alike, the source gives them in different places.

Data set [1] relates to rats. The following applies: oral CrCl3; cited from earlier work.
The test system of data set [2] is rats. The following applies: cited from earlier work.
For data set [3], the system named is subjects taking statin drugs. The data set can be described thus: Clinical trial of chromium picolinate on statin-induced insulin resistance (Example 1). It counts as in vivo, human. The following applies: 400 μg chromium, one capsule a day orally, approximately six months, versus statin drug without chromium supplementation. On the procedure: The effect of a chromium complex in inhibiting drug-induced insulin resistance is evaluated. Specifically, the effects of chromium picolinate on insulin sensitivity and vascular reactivity in subjects taking statin drugs are evaluated.
A clinical trial is initiated which includes approximately 80 male and female subjects between the ages of 35 and 65. The subject population is characterized as individuals suffering from moderate hypercholesterolemia and moderate high blood pressure. All subjects have been diagnosed with hypercholesterolemia. LDLC based on 75th percentile (>140-165 mg/dL) and HDL-C: <30 mg/dL. […]
Study visits are scheduled at the start of the study to record baseline information on the subjects and every two weeks thereafter. The following physiological conditions are measured prior to administration of the supplement as a baseline and at regular intervals during the course of the study: Glycated hemoglobin, fasting insulin, fasting plasma glucose levels, total cholesterol, triglycerides, LDL, HDL, urinalysis (routine), CBC, and serum chemistry, as well as blood pressure and body weight. In addition, insulin sensitivity is measured according to the euglycemic-hyperinsulinemic glucose clamp technique specified by R. A. DeFronzo et al. Glucose Clamp Technique: A Method for Quantifying Insulin Secretion and Resistance, 237 Am. […]

Take `CC(=O)Oc1ccccc1C(=O)O` [aspirin]: the “effect on chromium absorption” value in data set [1] was “facilitated”. On to `[Cl][Cr]([Cl])[Cl]` [chromium chloride], for which the toxic effects result in data set [2] (levels several thousand times the upper limit of the ESADDI for chromium for humans (based on body weight)) is “without toxic effects”. Take chromium picolinate: the toxic effects entry in data set [2] (rat, in vivo) is given as “without toxic effects”. The “incidence of drug-induced insulin resistance” value in data set [3] is “lower incidence of drug-induced insulin resistance”.
